Measured values taken from ChEMBL document CHEMBL1201862, “PubChem BioAssay data set” (2004).
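All cell lines were grown in 96-well plates and treated with compound for 48 hours. GI50 is the concentration that inhibits growth by half.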 The source made the active and inactive calls. No stated cut-off is given here; in the data, active = GI50 up to about 1.1 µM and inactive = higher.

Legend:
Assay in all cases: NCI-60 cell line screen, 48 h
786-0 = system: 786-0
A498 = system: A498
BT-549 = system: BT-549
CAKI-1 = system: CAKI-1
HCC 2998 = system: HCC 2998
HCT-15 = system: HCT-15
HL-60 = system: HL-60
K562 = system: K562
KM12 = system: KM12
M14 = system: M14
MCF7 = system: MCF7
NCI-H522 = system: NCI-H522
OVCAR-4 = system: OVCAR-4
PC-3 = system: PC-3
RPMI-8226 = system: RPMI-8226
RXF 393 = system: RXF 393
SK-MEL-5 = system: SK-MEL-5
SK-OV-3 = system: SK-OV-3
UO-31 = system: UO-31
Hs-578T = system: Hs-578T

SMILES: Cc1c(CCCl)c(Cl)n2c(nc3ccccc32)c1C#N
- GI50 (786-0): 0.463 µM (active)
- GI50 (A498): 1.37 µM (inactive)
- GI50 (BT-549): 2.21 µM (inactive)
- GI50 (CAKI-1): 0.597 µM (active)
- GI50 (HCC 2998): 1.56 µM (inactive)
- GI50 (HCT-15): 0.644 µM
- GI50 (HL-60): 0.107 µM (active)
- GI50 (K562): 0.321 µM (active)
- GI50 (KM12): 1.19 µM (inactive)
- GI50 (M14): 1.14 µM (inactive)
- GI50 (MCF7): 0.653 µM (active)
- GI50 (NCI-H522): 0.432 µM (active)
- GI50 (OVCAR-4): 1.44 µM (inactive)
- GI50 (PC-3): 1.02 µM (active)
- GI50 (RPMI-8226): 0.092 µM (active)
- GI50 (RXF 393): 0.787 µM (active)
- GI50 (SK-MEL-5): 0.891 µM (active)
- GI50 (SK-OV-3): 4.9 µM (inactive)
- GI50 (UO-31): 1.28 µM (inactive)

SMILES: C/C(=C\COP(=O)(O)OP(=O)(O)O)CCCCCCOCc1ccccc1
- GI50 (786-0): > 100 µM (inactive)
- GI50 (A498): > 100 µM (inactive)
- GI50 (BT-549): > 100 µM (inactive)
- GI50 (CAKI-1): > 100 µM (inactive)
- GI50 (HCC 2998): > 100 µM (inactive)
- GI50 (HCT-15): > 100 µM
- GI50 (HL-60): > 100 µM (inactive)
- GI50 (Hs-578T): > 100 µM (inactive)
- GI50 (K562): > 100 µM (inactive)
- GI50 (KM12): > 100 µM (inactive)
- GI50 (M14): > 100 µM (inactive)
- GI50 (MCF7): > 100 µM (inactive)
- GI50 (NCI-H522): > 100 µM (inactive)
- GI50 (OVCAR-4): > 100 µM (inactive)
- GI50 (RPMI-8226): > 100 µM (inactive)
- GI50 (RXF 393): > 100 µM (inactive)
- GI50 (SK-MEL-5): > 100 µM (inactive)
- GI50 (SK-OV-3): > 100 µM (inactive)
- GI50 (UO-31): > 100 µM (inactive)

SMILES: C=C1C(O)C23CCC4C(C(=O)O)(C(=O)O)CC(OC5OC(CO)C(O)C(OC(=O)CCc6ccccc6)C5NC(=O)CC(C)C)CC4(C)C2CCC1(O)C3 (configuration not stated)
- GI50 (786-0): > 100 µM (inactive)
- GI50 (A498): > 100 µM (inactive)
- GI50 (BT-549): > 100 µM (inactive)
- GI50 (CAKI-1): > 100 µM (inactive)
- GI50 (HCC 2998): > 100 µM (inactive)
- GI50 (HCT-15): > 100 µM
- GI50 (HL-60): > 100 µM (inactive)
- GI50 (Hs-578T): > 100 µM (inactive)
- GI50 (K562): > 100 µM (inactive)
- GI50 (KM12): > 100 µM (inactive)
- GI50 (M14): > 100 µM (inactive)
- GI50 (NCI-H522): > 100 µM (inactive)
- GI50 (OVCAR-4): > 100 µM (inactive)
- GI50 (PC-3): > 100 µM (inactive)
- GI50 (RPMI-8226): > 100 µM (inactive)
- GI50 (RXF 393): > 100 µM (inactive)
- GI50 (SK-MEL-5): > 100 µM (inactive)
- GI50 (SK-OV-3): > 100 µM (inactive)
- GI50 (UO-31): > 100 µM (inactive)

SMILES: Cc1cc(C)n2c(nc3ccccc32)c1C#N
- GI50 (786-0): > 100 µM (inactive)
- GI50 (A498): > 100 µM (inactive)
- GI50 (BT-549): > 100 µM (inactive)
- GI50 (CAKI-1): > 100 µM (inactive)
- GI50 (HCC 2998): > 100 µM (inactive)
- GI50 (HCT-15): > 100 µM
- GI50 (HL-60): > 100 µM (inactive)
- GI50 (K562): > 100 µM (inactive)
- GI50 (M14): > 100 µM (inactive)
- GI50 (MCF7): > 100 µM (inactive)
- GI50 (OVCAR-4): 10.8 µM (inactive)
- GI50 (PC-3): > 100 µM (inactive)
- GI50 (RXF 393): > 100 µM (inactive)
- GI50 (SK-MEL-5): 55.7 µM (inactive)
- GI50 (SK-OV-3): > 100 µM (inactive)
- GI50 (UO-31): > 100 µM (inactive)

SMILES: CC1(C)O[C@@H]([C@@H](O)[C@H](O)C2SCCCS2)[C@@H](CO)O1
- GI50 (786-0): > 100 µM (inactive)
- GI50 (A498): > 100 µM (inactive)
- GI50 (BT-549): > 100 µM (inactive)
- GI50 (CAKI-1): > 100 µM (inactive)
- GI50 (HCT-15): > 100 µM
- GI50 (HL-60): > 100 µM (inactive)
- GI50 (Hs-578T): > 100 µM (inactive)
- GI50 (K562): > 100 µM (inactive)
- GI50 (KM12): > 100 µM (inactive)
- GI50 (M14): > 100 µM (inactive)
- GI50 (NCI-H522): > 100 µM (inactive)
- GI50 (PC-3): > 100 µM (inactive)
- GI50 (RPMI-8226): > 100 µM (inactive)
- GI50 (RXF 393): > 100 µM (inactive)
- GI50 (SK-MEL-5): > 100 µM (inactive)
- GI50 (SK-OV-3): > 100 µM (inactive)
- GI50 (UO-31): > 100 µM (inactive)

SMILES: O=C1N/C(=N/N=C/C(O)C(O)C(O)CO)N/C1=C\c1c[nH]c2ccccc12 (configuration not stated)
- GI50 (786-0): > 100 µM (inactive)
- GI50 (BT-549): > 100 µM (inactive)
- GI50 (CAKI-1): > 100 µM (inactive)
- GI50 (HCC 2998): > 100 µM (inactive)
- GI50 (HCT-15): > 100 µM
- GI50 (HL-60): > 100 µM (inactive)
- GI50 (Hs-578T): > 100 µM (inactive)
- GI50 (K562): > 100 µM (inactive)
- GI50 (KM12): > 100 µM (inactive)
- GI50 (M14): > 100 µM (inactive)
- GI50 (MCF7): > 100 µM (inactive)
- GI50 (NCI-H522): > 100 µM (inactive)
- GI50 (OVCAR-4): > 100 µM (inactive)
- GI50 (RPMI-8226): > 100 µM (inactive)
- GI50 (RXF 393): > 100 µM (inactive)
- GI50 (SK-MEL-5): > 100 µM (inactive)
- GI50 (SK-OV-3): > 100 µM (inactive)
